Measurements: patent publication US6620828B2, “Thiazole compounds and pharmaceutical compositions for inhibiting protein kinases and methods for their use” (Agouron Pharmaceuticals, Inc., priority 1999, dated 2003)
Values joined by “and” are separate entries in the source; they are usually repeats but may differ in a detail not shown here. Identical values can stand only once. Like-named read-outs stand apart in the source and are kept apart here.

Columns and labels:
CDK4/Cyclin D3 complex = target: T1, CDK4/Cyclin D3 complex (Homo sapiens, UniProt P11802); assay: CDK4/Cyclin D assay; assay type: biochemical; details: for CDK4 % inhibition @ 10: at 10 (head μM)
T1 construct: made in house; host or cells: insect cells co-infected with baculovirus vectors
T1 sequence (P11802 whole entry): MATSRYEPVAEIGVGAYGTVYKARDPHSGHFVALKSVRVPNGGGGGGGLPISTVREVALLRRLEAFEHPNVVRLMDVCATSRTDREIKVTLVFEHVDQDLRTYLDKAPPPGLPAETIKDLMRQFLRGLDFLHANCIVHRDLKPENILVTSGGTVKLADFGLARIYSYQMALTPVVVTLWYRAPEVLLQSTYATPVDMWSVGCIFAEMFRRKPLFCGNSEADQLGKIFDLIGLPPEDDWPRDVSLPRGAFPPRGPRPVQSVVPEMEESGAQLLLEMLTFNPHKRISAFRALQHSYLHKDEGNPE
T1 sequence (P30281 whole entry partner): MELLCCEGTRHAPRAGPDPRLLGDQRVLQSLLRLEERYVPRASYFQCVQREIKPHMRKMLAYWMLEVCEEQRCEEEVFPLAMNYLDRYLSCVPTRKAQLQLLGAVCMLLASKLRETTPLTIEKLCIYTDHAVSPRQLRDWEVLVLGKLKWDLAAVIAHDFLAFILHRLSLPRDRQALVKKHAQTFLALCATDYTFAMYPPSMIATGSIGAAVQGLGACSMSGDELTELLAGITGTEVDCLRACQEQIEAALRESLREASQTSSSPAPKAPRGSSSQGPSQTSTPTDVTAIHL
Summary of the method: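 Insect-cell-expressed CDK4/cyclin D3 (50 nM) phosphorylating His-tagged Rb fragment (residues 386-928) with 25 μM [^32P]ATP in HEPES pH 7.4, MgCl2, 2% DMSO; 20 min at 30 °C, EDTA stop. Filter-captured 32P by phosphorimager; apparent Ki from competitive or tight-binding inhibition fits.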

CDK2/Cyclin A complex = CDK2/Cyclin A complex (Homo sapiens, UniProt P24941); assay: CDK2/Cyclin A assay; assay type: biochemical; details: for CDK2 % inhibition @ 10: at 10 (head μM)
Summary of the method: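 Radiometric assay: 150 nM CDK2/cyclin A (insect-cell CDK2, truncated cyclin A) phosphorylates His-tagged Rb fragment (residues 386-928) with 25 μM ATP plus [32P]ATP, pH 7.4 HEPES, 2% DMSO, 30 °C for 20 min. Filter-captured product counted by phosphorimager; apparent Ki from competitive or tight-binding inhibition fits.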

CHK1 = target: T2, CHK1 (Homo sapiens, UniProt O14757); assay: CHK1 high-throughput screening; assay type: biochemical; details: for inhibition at 20 µM: read-out: % inhibition @ 20 μM, Table 4, repeated entries per example
T2 sequence (O14757 1-476): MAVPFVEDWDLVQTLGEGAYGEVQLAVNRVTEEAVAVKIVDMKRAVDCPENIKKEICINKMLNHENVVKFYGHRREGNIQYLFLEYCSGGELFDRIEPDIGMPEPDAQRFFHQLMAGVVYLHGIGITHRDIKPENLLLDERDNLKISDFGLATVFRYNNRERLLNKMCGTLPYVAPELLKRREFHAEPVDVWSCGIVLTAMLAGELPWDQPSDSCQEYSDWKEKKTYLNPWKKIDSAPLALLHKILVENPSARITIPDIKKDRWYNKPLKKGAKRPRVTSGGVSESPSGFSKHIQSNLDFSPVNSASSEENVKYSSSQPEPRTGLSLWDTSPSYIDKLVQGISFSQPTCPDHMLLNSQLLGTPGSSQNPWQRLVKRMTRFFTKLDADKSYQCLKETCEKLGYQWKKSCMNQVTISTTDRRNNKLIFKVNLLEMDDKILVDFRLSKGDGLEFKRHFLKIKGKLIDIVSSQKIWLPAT

[1] = target: T3, phosphorylated VEGF-R2Δ50 (Homo sapiens, UniProt P35968, DEL940-989/E990V); assay: VEGF-R2 ELISA assay; assay type: biochemical; details: * determined with ELISA assay, read-out: FLVK-P Ki
T3 construct: VEGF-R2Δ50 contains residues 806-939 and 990-1171; made in house; host or cells: baculovirus/insect cells
T3 sequence (P35968 with tags, fused parts or gaps DEL940-989/E990V limits assumed): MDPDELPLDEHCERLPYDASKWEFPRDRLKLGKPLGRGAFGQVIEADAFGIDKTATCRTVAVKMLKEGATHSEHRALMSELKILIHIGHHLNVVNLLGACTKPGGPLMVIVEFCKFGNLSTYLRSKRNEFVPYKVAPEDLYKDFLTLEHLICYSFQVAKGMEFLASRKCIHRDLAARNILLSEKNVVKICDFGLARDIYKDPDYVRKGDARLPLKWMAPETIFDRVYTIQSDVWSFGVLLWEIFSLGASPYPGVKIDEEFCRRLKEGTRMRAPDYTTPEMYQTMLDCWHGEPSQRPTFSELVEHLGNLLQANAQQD
From the text: VEGF-R2 Construct for Assay: This construct determines the ability of a test compound to inhibit tyrosine kinase activity. A construct (VEGF-R2Δ50) of the cytosolic domain of human vascular endothelial growth factor receptor 2 (VEGF-R2) lacking the 50 central residues of the 68 residues of the kinase insert domain was expressed in a baculovirus/insect cell system. Of the 1356 residues of full-length VEGF-R2, VEGF-R2Δ50 contains residues 806-939 and 990-1171, and also one point mutation (E990V) within the kinase insert domain relative to wild-type VEGF-R2. Autophosphorylation of the purified construct was performed by incubation of the enzyme at a concentration of 4 μM in the presence of 3 mM ATP and 40 mM MgCl2 in 100 mM Hepes, pH 7.5, containing 5% glycerol and 5 mM DTT, at 4° C. for 2 h. […] See Parast et al., Biochemistry, 37, 16788-16801 (1998).
Formation of phosphogastrin was monitored using biotinylated gastrin peptide (1-17) as substrate. Biotinylated phosphogastrin was immobilized using streptavidin coated 96-well microtiter plates followed by detection using anti-phosphotyrosine-antibody conjugated to horseradish peroxidase. The activity of horseradish peroxidase was monitored using 2,2′-azino-di-[3-ethylbenzathiazoline sulfonate(6)]diammonium salt (ABTS). Typical assay solutions contained: 2 μM biotinylated gastrin peptide; 5 mM DTT; 20 μM ATP; 26 mM MgCl2; and 2 mM MnCl2 in 200 mM Hepes, pH 7.5. The assay was initiated with 0.8 nM of phosphorylated VEGF-R2Δ50. Horseradish peroxidase activity was assayed using ABTS, 10 mM. The horseradish peroxidase reaction was quenched by addition of acid (H2SO4), followed by absorbance reading at 405 nm. Ki values were determined by measuring enzyme activity in the presence of varying concentrations of test compounds. The data were analyzed using Enzyme Kinetic and Kaleidagraph software.

FL-CHK1 = target: T4, FL-CHK1 (Homo sapiens, UniProt O14757); assay: CHK1 assay; assay type: biochemical; details: Table 2; at 5 (head μM)
T4 construct: C-terminally His-tagged full-length human CHK1 (FL-CHK1); 6xHis (C); made in house; host or cells: baculovirus/insect cells
T4 sequence (O14757 1-476): T2 sequence (O14757 1-476)
Summary of the method: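 Full-length human CHK1 with C-terminal 6×His tag, made in baculovirus/insect cells, 10 nM, phosphorylating 0.125 mM Syntide-2 with 0.15 mM ATP in 50 mM Tris pH 7.5, 25 mM MgCl2, 400 mM NaCl. PK/LDH-coupled NADH oxidation read at 340 nm. Ki from initial rates over varied compound concentrations.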

[2] = target: T5, phosphorylated VEGF-R2Δ50 (FLVK-P) (Homo sapiens, UniProt P35968, DEL940-989/E990V); assay: VEGF-R2 coupled spectrophotometric (FLVK-P) assay; assay type: biochemical; details: spectrophotometric assay
T5 construct: VEGF-R2Δ50 contains residues 806-939 and 990-1171; made in house; host or cells: baculovirus/insect cells
T5 sequence (P35968 with tags, fused parts or gaps DEL940-989/E990V limits assumed): as above
Summary of the method: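 Baculovirus-expressed human VEGF-R2Δ50 (residues 806-939/990-1171, E990V) was autophosphorylated with 3 mM ATP, 40 mM MgCl2 for 2 h at 4° C. ADP formation was coupled via PK/LDH to NADH oxidation, read at 340 nm, with 5.1 mM poly(E4Y1), 1 mM ATP, 25 mM MgCl2, Hepes pH 7.5. Ki came from activity across compound concentrations.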

[3] = target: T6, unphosphorylated VEGF-R2Δ50 (FLVK) (Homo sapiens, UniProt P35968, DEL940-989/E990V); assay: VEGF-R2 coupled spectrophotometric assay, unphosphorylated enzyme (FLVK); assay type: biochemical; details: Table 1
T6 construct: VEGF-R2Δ50 contains residues 806-939 and 990-1171; made in house; host or cells: baculovirus/insect cells
T6 sequence (P35968 with tags, fused parts or gaps DEL940-989/E990V limits assumed): as above
Summary of the method: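 Unphosphorylated VEGF-R2Δ50 (5 to 40 nM) with 20 mM poly(E4Y1), 3 mM ATP, 60 mM MgCl2, 2 mM MnCl2 in 200 mM Hepes pH 7.5. ADP production coupled via PK/LDH to NADH oxidation, read at 340 nm. Ki from activity at varying compound concentrations.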

[4] = system: lung cancer cells (line MV522); assay: Cancer cell proliferation (MV522) assay; assay type: cell-based; details: MV522, Table 1
[5] = system: human umbilical vein endothelial cells (HUVEC); assay: HUVEC proliferation assay; assay type: cell-based; details: Homo sapiens, HUVEC, Table 1
Summary of the method: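 Exponentially growing HUVEC were serum-starved 24 h (F12K + 1% FBS), pre-treated 1 h with compound (0.1% DMSO final), then stimulated with 6 ng/ml VEGF. Proliferation was read 72 h later by MTT reduction (A595). IC50 came from seven 0.5-log concentrations in triplicate; screens gave % inhibition relative to VEGF-only and starved wells.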

FGF-R1 = target: T7, FGF-R1 (Homo sapiens, UniProt P11362, C488A/C584S/L457V); assay: FGF-R spectrophotometric assay; assay type: biochemical; details: Table 2
T7 construct: starting from the endogenous methionine residue 456 to glutamate 766; made in house; host or cells: baculovirus vector expression system
T7 sequence (P11362 456-766 L457V/C488A/C584S): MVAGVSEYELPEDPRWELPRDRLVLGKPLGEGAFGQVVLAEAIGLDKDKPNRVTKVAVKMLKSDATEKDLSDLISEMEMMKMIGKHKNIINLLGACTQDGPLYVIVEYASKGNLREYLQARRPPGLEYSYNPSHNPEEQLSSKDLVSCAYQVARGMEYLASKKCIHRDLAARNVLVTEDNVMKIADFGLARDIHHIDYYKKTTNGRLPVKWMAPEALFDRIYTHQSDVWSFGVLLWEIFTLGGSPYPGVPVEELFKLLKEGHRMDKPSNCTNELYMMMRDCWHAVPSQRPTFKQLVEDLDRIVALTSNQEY
Experimental: FGF-R1 Construct for Assay: The intracellular kinase domain of human FGF-R1 was expressed using the baculovirus vector expression system starting from the endogenous methionine residue 456 to glutamate 766, according to the residue numbering system of Mohammadi et al., Mol. Cell. Biol., 16, 977-989 (1996). In addition, the construct also has the following 3 amino acid substitutions: L457V, C488A, and C584S.
The spectrophotometric assay was carried out as described above for VEGF-R2, except for the following changes in concentration: FGF-R=50 nM, ATP=2 mM, and poly(E4Y1)=15 mM.

Nc1nc(Nc2ccc(S(N)(=O)=O)cc2)sc1-c1nc(-c2ccc(F)cc2F)cs1 [A(4), 4-[4′-Amino-4-(2,4-difluoro-phenyl)-[2,5′]bithiazolyl-2′-ylamino]-benzenesulfonamide]
CDK4 % inhibition @ 10 (CDK4/Cyclin D3 complex; Table 2): 42% @ | CDK2 % inhibition @ 10 (CDK2/Cyclin A complex; Table 2): 57% @ | melting point: 233 to 238 °C

Nc1nc(Nc2ccc(S(N)(=O)=O)cc2)sc1-c1nc(-c2ccc(F)cc2)cs1 [A(5), 4-[4′-Amino-4-(4-fluoro-phenyl)-[2,5′]bithiazolyl-2′-ylamino]-benzenesulfonamide]
CDK4 % inhibition @ 10 (CDK4/Cyclin D3 complex; Table 2): 30% @ | CDK2 % inhibition @ 10 (CDK2/Cyclin A complex; Table 2): 27% @ | melting point: 254 to 257 °C

Nc1nc(Nc2ccc(S(N)(=O)=O)cc2)sc1-c1nc(-c2ccc(Cl)cc2Cl)cs1 [A(6), 4-[4′-Amino-4-(2,4-dichloro-phenyl)-[2,5′]bithiazolyl-2′-ylamino]-benzenesulfonamide]
CDK4 % inhibition @ 10 (CDK4/Cyclin D3 complex; Table 2): 54% @ | CDK2 % inhibition @ 10 (CDK2/Cyclin A complex; Table 2): 36% @ | melting point: 173 to 175 °C (dec.)

Cc1c(F)cc(-c2csc(-c3sc(Nc4ccc(S(N)(=O)=O)cc4)nc3N)n2)cc1Cl [A(7), 4-[4′-Amino-4-(3-chloro-5-fluoro-4-methyl-phenyl)-[2,5′]bithiazolyl-2′-ylamino]-benzenesulfonamide]
CDK4 % inhibition @ 10 (CDK4/Cyclin D3 complex; Table 2): 28% @ | CDK2 % inhibition @ 10 (CDK2/Cyclin A complex; Table 2): 25% @ | melting point: 208 to 212 °C

Nc1nc(Nc2ccc(S(N)(=O)=O)cc2)sc1-c1nc(-c2cccc(C(=O)O)c2)cs1 [A(21), 3-[4′-Amino-2′-(4-sulfamoyl-phenylamino)-[2,5′]bithiazolyl-4-yl]-benzoic acid]
inhibition at 20 µM (CHK1): -7.2% | Ki (CDK4/Cyclin D3 complex; Table 2): 45000 nM | Ki (CDK2/Cyclin A complex; Table 2): 8210 nM | Ki ([1]; Table 2): 8800 nM

COc1cc(Nc2nc(N)c(-c3nc(-c4ccc(Cl)c(O)c4)cs3)s2)cc(OC)c1OC [A(22), 5-[4′-Amino-2′-(3,4,5-trimethoxy-phenylamino)-[2,5′]bithiazolyl-4-yl]-2-chloro-phenol]
inhibition at 20 µM (CHK1): 7.5% | CHK-1 % inhibition @ 5 (FL-CHK1): 54% @ | Ki ([2]; Table 2): 21 nM | melting point: 235 to 238 °C

Cc1ccc(-c2csc(-c3sc(Nc4ccc(S(N)(=O)=O)cc4)nc3N)n2)cc1 [A(24), 4-(4′-Amino-4-p-tolyl-[2,5′]bithiazolyl-2′-ylamino)-benzenesulfonamide]
inhibition at 20 µM (CHK1): 13.3% | CDK4 % inhibition @ 10 (CDK4/Cyclin D3 complex; Table 2): 64% @ | Ki (CDK2/Cyclin A complex; Table 2): 3400 nM | Ki ([1]; Table 2): 5500 nM

Nc1nc(Nc2ccc(S(N)(=O)=O)cc2)sc1-c1nc(-c2cc(O)cc(OCc3ccccc3)c2)cs1 [A(61), 4-[4′-Amino-4-(3-benzyloxy-5-hydroxy-phenyl)-[2,5]bithiazolyl-2′-ylamino]-benzenesulfonamide]
Ki (CDK2/Cyclin A complex; Table 2): 2700 nM | melting point: 185 to 187 °C (dec.)

Nc1nc(Nc2ccc(S(N)(=O)=O)cc2)sc1-c1nc(/C=C/c2ccc(O)cc2)cs1 [A(64), 4-{4′-Amino-4-[2-(4-hydroxy-phenyl)-vinyl]-[2,5′]bithiazolyl-2′-ylamino}-benzenesulfonamide]
% inhibition @ 20 μM (CHK1; Table 4, repeated entries per example, 20 µM): 1.1% and 7.2% and 8.3% | Ki (CDK2/Cyclin A complex; Table 2): 520 nM | melting point: 138 to 140 °C (dec.)

COc1cc(Nc2nc(N)c(-c3nc(-c4cccc(NC(=O)c5ncc(C)s5)c4)no3)s2)cc(OC)c1OC [D(51)]
Ki [3]: 0.62 nM | Ki ([1]; Table 1): 32 nM | IC50 [4]: > 10000 nM | IC50 [5]: 40 nM

Nc1nc(N)c(-c2nc(-c3cccc(NC(=O)c4ccccc4)c3)cs2)s1 [E(2), N-[3-(2 ′,4′-Diamino-[2,5′]bithiazolyl-4-yl)-phenyl]benzamide]
Ki [3]: 38 nM | Ki ([2]; Table 1): 390 nM | melting point: 159 to 163 °C (dec.)

COc1cc(Nc2nc(N)c(C3=NC(c4ccccc4)CO3)s2)cc(OC)c1OC (centres unmarked) [I(6), S-5-(4-Phenyl-4,5-dihydro-oxazol-2-yl)-N^2-(3,4,5-trimethoxyl-phenyl)-thiazole-2,4-diamine]
Ki (FGF-R1): 22000 nM | Ki ([2]; Table 2): 100 nM

CON(C)C(=O)c1csc(-c2sc(Nc3ccc(S(N)(=O)=O)cc3)nc2N)n1 [N(3), 4′-Amino-2′-(4-sulfamoyl-phenylamino)-[2,5′]bithiazolyl-4-carboxylic acid methoxy-methyl-amide]
Ki (CDK4/Cyclin D3 complex; Table 3): 1100 nM | Ki (CDK2/Cyclin A complex; Table 3): 100 nM | melting point: 195 to 198 °C
